{
  "source": "patent US12195741B2",
  "about": "“Creation of herbicide resistant gene and use thereof” (INSTITUTE OF GENETICS AND DEVELOPMENTAL BIOLOGY, CHINESE …, priority 2017, dated 2025)",
  "key": {"[1]": {"system": "wild type wheat tissue culture seedlings", "assay": "Establishing resistance screening conditions: herbicide concentration inhibiting growth of wild type wheat seedlings", "type": "in vivo", "conditions": "minimum herbicide concentration inhibiting plant growth, 1/2 MS medium, after 7 days", "procedure": "(§1) Herbicides listed in Table 5 were selected, and ½ MS medium containing different concentrations of herbicides was prepared for screening wild type rice and wheat tissue culture seedlings. After 7 days, the minimum herbicide concentrations inhibiting plant growth were selected for subsequent screen of transformed plants."}, "[2]": {"system": "wild type rice tissue culture seedlings", "assay": "Establishing resistance screening conditions: herbicide concentration inhibiting growth of wild type rice seedlings", "type": "in vivo", "conditions": "minimum herbicide concentration inhibiting plant growth, 1/2 MS medium, after 7 days", "procedure": "as §1"}},
  "data": [
    {"molecule": "COC(=O)[C@@H](C)Oc1ccc(Oc2ncc(C(F)(F)F)cc2Cl)cc1", "note": "[Haloxyfop-R-methyl]", "values": [
      {"measurement": "Selection concentration for wheat (PPM)", "setting": "[1]", "value": 0.036, "unit": "PPM"},
      {"measurement": "Selection concentration for rice (PPM)", "setting": "[2]", "value": 0.036, "unit": "PPM"}
    ]},
    {"molecule": "COc1cc(OC)nc(NC(=O)NS(=O)(=O)c2ncccc2C(=O)N(C)C)n1", "note": "[Nicosulfuron]", "values": [
      {"measurement": "Selection concentration for wheat (PPM)", "setting": "[1]", "value": 0.13, "unit": "PPM"},
      {"measurement": "Selection concentration for rice (PPM)", "setting": "[2]", "value": 0.012, "unit": "PPM"}
    ]},
    {"molecule": "CCCCOC(=O)[C@@H](C)Oc1ccc(Oc2ccc(C#N)cc2F)cc1", "note": "[cyhalofop-butyl]", "values": [
      {"measurement": "Selection concentration for rice (PPM)", "setting": "[2]", "value": 5.3, "unit": "PPM"}
    ]},
    {"molecule": "CCOC(=O)[C@@H](C)Oc1ccc(Oc2nc3ccc(Cl)cc3o2)cc1", "note": "[fenoxaprop-P-ethyl]", "values": [
      {"measurement": "Selection concentration for rice (PPM)", "setting": "[2]", "value": 4.5, "unit": "PPM"}
    ]},
    {"molecule": "CCC/C(=N\\OCC)C1=C(O)CC(CC(C)SCC)CC1=O", "note": "(centres unmarked) [sethoxydim]", "values": [
      {"measurement": "Selection concentration for wheat (PPM)", "setting": "[1]", "value": 0.33, "unit": "PPM"},
      {"measurement": "Selection concentration for rice (PPM)", "setting": "[2]", "value": 0.33, "unit": "PPM"}
    ]}
  ]
}
